Values quoted from earlier work in article PMC2552397 (Journal of medicinal chemistry, 2008).

How the values were obtained:
GGPPS = molecular target: T1, GGPPS (Homo sapiens, UniProt O95749); details: in words
T1 sequence (O95749 1-300): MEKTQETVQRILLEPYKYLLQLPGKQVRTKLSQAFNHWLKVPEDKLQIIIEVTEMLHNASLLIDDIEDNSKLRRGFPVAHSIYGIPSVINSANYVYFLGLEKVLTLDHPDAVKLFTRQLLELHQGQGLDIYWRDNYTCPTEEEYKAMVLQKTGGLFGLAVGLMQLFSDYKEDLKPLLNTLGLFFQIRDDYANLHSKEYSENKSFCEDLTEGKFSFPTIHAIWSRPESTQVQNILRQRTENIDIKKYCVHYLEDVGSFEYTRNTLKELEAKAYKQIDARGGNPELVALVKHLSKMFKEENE

K562 tumor cell line = details: in words

Row | Structure (SMILES) | activity against GGPPS (GGPPS) | activity against a K562 tumor cell line (K562 tumor cell line)
1 | CCCCCCCCCC(O)(P(=O)(O)O)P(=O)(O)O [compound 4] | quite potent activity | 
2 | CC(C)=CCC/C(C)=C/CC(C/C=C(\C)CCC=C(C)C)(P(=O)(O)O)P(=O)(O)O [compound 5, digeranyl methylene bisphosphonate] | potent activity | potent activity
